Data published in patent publication US11771707B2, “Pharmaceutical compositions and uses thereof” (SpineThera, priority 2016, dated 2023).

Key:
[1] = in vitro release in 1% C-TAB buffer at pH 3.5; assay type: physicochemical
Text: Without wishing to be bound by theory, pharmaceutical compositions of the type described herein are not expected to elicit any significant or appreciable degree of inflammatory response or cause necrosis. Histological examination may reveal the microspheres to be localized and agglomerated within the epidural space at the site of injection with no evidence of the presence of the injection vehicle after about 2 days. Contents of the treated epidural pocket can be recovered by dissection. It can be reasonably expected that dexamethasone acetate will be released continuously over approximately 45 days under in vitro conditions of 1% C-TAB buffer at pH 3.5, with <20% of the drug released in 1 day, 30-60% in 7 days, 60-85% in 28 days and not less than 85% in 45 days, with complete microsphere polymer degradation in about 16 weeks/112 days.

[2] = in vitro release of dexamethasone acetate from microspheres; assay type: physicochemical
Protocol: The microspheres, and compositions comprising those microspheres, of the various embodiments described herein are analyzed using USP methods known in the art to determine, among other things, the pH of the compositions, the in vitro release of API, and the impurities present. […] Without wishing to be bound by theory, it can be reasonably expected that dexamethasone acetate will release continuously over about 84 days in vitro, with about 20% of the drug released in 3 days, 50% in 25 days, and 90% in 60 days. It will be understood that the release profile may be adjusted by one or more of the following, including combinations: increasing or decreasing drug to polymer ratio; increasing or decreasing polymer molecular weight; increasing or decreasing particle size; increasing or decreasing polymer degradation time (by decreasing or increasing glycolic acid content); or increasing or decreasing hydrophilicity of microsphere surface.

[3] = brain; cited from earlier work

- period of continuous release ([1]; 1% C-TAB buffer pH 3.5): approximately 45 days
- drug released ([1]; 1% C-TAB buffer pH 3.5, in 1 day): < 20%
- drug released ([1]; 1% C-TAB buffer pH 3.5, in 7 days): 30-60%
- drug released ([1]; 1% C-TAB buffer pH 3.5, in 28 days): 60-85%
- drug released ([1]; 1% C-TAB buffer pH 3.5, in 45 days): not less than 85%
- period of continuous release [2]: about 84 days
- drug released ([2]; in 3 days): about 20%
- drug released ([2]; in 25 days): ~50%
- drug released ([2]; in 60 days): ~90%
Compound: CC(=O)OCC(=O)[C@@]1(O)[C@H](C)C[C@H]2[C@@H]3CCC4=CC(=O)C=C[C@]4(C)[C@@]3(F)[C@@H](O)C[C@@]21C [dexamethasone acetate, 9 alpha-fluoro-11-beta, 17-alpha, 21-trihydroxy-16 alpha-methylpregna-1,4-diene-3,20-dione 21-acetate]
- anti-inflammatory effect and tissue water content [3]: anti-inflammatory effect in the brain without reducing tissue water content
